Entries after “also recorded” stand apart in the source; their conditions may differ.
Tests used:
A549 cells [1] = assay: Pifithrin-α treatment of A549 cells transfected with Cas9 or Cas9-HR, resazurin viability; type: cell-based, human
Experimental: (§1) 20 μL of 0.15 mg/mL Resazurin solution was added to cells either plated in 96 well plates for all cell lines, which were then incubated for ˜4 hours at 37° C. Cellular toxicity was quantified using a Tecan SpectraFlour Plus plate reader (Tecan) using a 535/595 filter set. Raw data was then normalized to the mean of the untransfected controls and plotted as described.

A549 cells [2] = assay: Cellular toxicity / viability of transfected A549 cells (resazurin assay); type: cell-based
Experimental: A549 cells were chosen as they are both facile to grow and transfect, cost effective in terms of media and other reagents, and importantly have retained a functional p53 gene.
Cells were then allowed to recover for one additional day, after which viability was cells were incubated with resazurin (Millipore Sigma) for 4 hours, after which fluorescence was quantified by a plate reader (Perkin Elmer).
Unless otherwise noted, adherent cells (A549 or H1299) were seeded in 96 well plates and grown in either 50/50 F-12/DMEM or RPMI-1640 respectively, supplemented with 5% FBS and grown to roughly 70% confluency. Cells were then transfected with either Cal-Phos as described in Chen 2012 or Lipofectamine 3000 (Thermofisher). Fresh media was exchanged the next day and cellular viability was quantified on day 2.
as §1
as §1, with “described. […] Stats: All two-sided students T-test with unequal variance.” for “described.”

endogenous H2B = assay: H2B-mNeon knock-in HDR quantification in K562 cells; type: cell-based, human; conditions: H2B-mNeon RT, genome specific plus RT specific primers
Experimental: After two days, cells were fixed in 4% PFA washed in PBS, then directly imaged, with cells showing nuclear localized fluorescence counted as successful HDR events.
K562 were grown in 24 well plates with RPMI-1640 supplemented with 5% FBS until roughly 70% confluent. At that time cells were either electroporated using the mNeon system (Invitrogen) using optimized settings for K562 cells, or lipofectamine 3000 again following manufactures instructions. Cells were then returned to 24 well plates with fresh media and grown for at least two days before being used in downstream analysis.
After 2 days, cells attached to coverslips coated with 0.01% poly-1-lysine, and were fixed in 4% PFA (Thermofisher) for 15 minutes at RT. After fixation, cells were washed 3× in PBS, mounted in 50% glycerol and imaged on a Nikon Eclipse E600 with standard FITC filters. For quantification, random patches of cells (usually between 8-15 cells per image) were identified via Brightfield, then fluoresce images were taken with constant illumination and exposure time (100%, and 110 ms respectively).

HBB amplicon = assay: In-vitro exonuclease assay with purified proteins; type: biochemical, human; conditions: 30 nM protein, 3 nM HBB amplicon, 37° C., 60 minutes
Experimental: Reactions were then electrophoresed and visualized on an agarose gel. FIG. 5C illustrates quantification of exonuclease activity. Quantification of exonuclease activity assayed in FIG. 5B. 3 replicates were performed for each reaction and were quantified via FIJI (ImageJ) and then normalized to control amplicon levels.
Reactions were then electrophoresed and visualized on an agarose gel.
DNA was isolated from wildtype K562 cells, and amplified using standard Taq DNA polymerase and HBB-out-F (5′-[…]-3′ (SEQ ID NO: 125)) and HBB-out-R (5′-[…]-3′ (SEQ ID NO: 126)), Tm=56 for 35 cycles, and purified using the Qiagen PCR cleanup kit. […] The samples were then electrophoresed on a standard 1% TAE agarose gel stained with gel green.

Compound	cellular viability over a dilution series (A549 cells [1]; 10 nM-10 μM Pifithrin-α, A549 cells transfected with Cas9)	effect on viability / Cas9 mediated toxicity compared to DMSO (A549 cells [1]; 10 μM Pifithrin-α, A549 cells transfected with Cas9)	effect on viability / toxicity compared to DMSO (A549 cells [1]; 10 μM Pifithrin-α, A549 cells transfected with Cas9-HR 8)	increase in cellular viability compared to DMSO (A549 cells [1]; 10 μM Pifithrin-α, A549 cells transfected with Cas9, two days)	cellular toxicity (A549 cells [2]; Int-G2 and Int-G3, CalPhos)	toxicity targeting G-2 rather than G-3 (A549 cells [2]; Int-G2 vs Int-G3)	reduction in cellular toxicity compared to Cas9 or Cas9+hExo1 (A549 cells [2]; targeting HBB-G3)	PCR of 5′ and 3′ knock-in junctions (endogenous H2B)	exonuclease activity (reduction of full length HBB amplicon) (HBB amplicon)
Cc1ccc(C(=O)Cn2c3c(sc2=N)CCCC3)cc1 [Pifithrin-α]	dose dependent response in cellular viability; also recorded: decreasing levels of toxicity with increasing concentrations; also recorded: Dose dependent increases in cellular viability	reduces Cas9 mediated cellular toxicity; also recorded: statistically significant (p<0.001) increase in viability; also recorded: increase in cellular viability	does not affect cellular toxicity; also recorded: no significant change in cellular viability; also recorded: no effect	~2 fold	–	–	–	–	–
Cas9-HR 4: hExo1(1-352)-Cas9 fusion of FIG. 1A; E. coli codon optimized vector SEQ ID NO: 67	–	–	–	–	dramatic reduction in cellular toxicity	significantly more toxicity	greatest reduction	Successful amplification	did not show Exonuclease activity; also recorded: no significant activity

From patent US20230416785A1, “NUCLEASE AND APPLICATION THEREOF” (CRISP-HR Therapeutics, Inc., priority 2020, published 2023)
